Measurements from patent US5268389A, “Thiocarboxylate ester compounds compositions containing the same” (priority 1990, dated 1993).
Where “and” joins values, the source holds several entries; their conditions need not be identical. Identical values can stand only once.

Key:
HIV [1] = test: Reduction of HIV cytopathic effect, CEMZ (CEM line with sub-effective amount of AZT); format: cell-based; conditions: CEM cells, read-out: Activity of Anti-HIV Compounds (EC50), CEMZ
Description: (§1) The compounds of Examples were tested for anti-AIDS activity by subjecting them to standard National Cancer Institute ("NCI") in vitro screening procedures. In carrying out each test, two blanks were run. In the first blank, HIV and a culture of a standard human cell line were incubated together to measure the infectivity of the virus. The viability of the cells was measured after holding for six or seven days. In an "effective" test, most cells were infected before the holding period was complete.
(§2) In the second blank, the cell line culture and the compound being tested (but not virus) were incubated together to measure the toxicity of the drug to the cellline. The viability of the cells was measured as a function of concentration of the compound, after holding for seven days. Typically, the cells survive at low compound concentrations, but at some higher concentration, toxicity of the compound is manifested and the cells die. The concentration of the test compound that results in 50% inhibition of cell growth is defined as the IC50.
(§3) Finally, the protective effects of the test compounds were measured. Each cell culture and test compound were incubated with the virus and the viability of the cells was measured as a function of compound concentration after holding for six or seven days. If the compound is active in protecting the cells against the virus, there is typically low cell viability until an effective concentration of the test compound is reached. At this point, cell viability increases steadily toward 100% unless the toxic effect of the compound (as measured in the second blank) takes effect. The concentration of the test compound that results in 50% "control," i.e., a 50% reduction of the viral cytopathic effect, is defined as the EC 50. The therapeutic index TI50 is calculated as IC50/EC50.
(§4) Values of test compound concentrations required for between 20 and 50% reduction of the viral cytopathic effect can also be determined. Such compounds are classified as moderately active.
(§5) The compounds were tested to determine their reduction of HIV cytopathic effect on the human cell lines CEM and MT2. Tests were done by innoculating these cell lines either with free HIV (V) or with a virus Previously cultured with host cells (C). Thus, in Table III the designation CEMV means CEM line cells innoculated with free virus and MT2C means MT2 cells innoculated with cultured viral infected MT2 cells. In some cases the compound was also tested on a cell line together with a sub-effective amount of the known HIV viricide AZT. This is done to test possible synergistic effects. Such a test on the CEM line is denoted CEMZ.

HIV [2] = test: microbe, parasite or virus in culture; format: cell-based
Description: as §1, §2, §3, §4, §5
(§6) 1) T4 lymphocytes (CEM cell line) are exposed to HIV at a virus to cell ratio of approximately 0.05 and plated along with non-infected control cells in 96-well microtiter plates.
(§7) 2) Each candidate agent is dissolved in dimethyl sulfoxide (unless otherwise indicated), then diluted 1:200 in cell culture medium. Further dilutions (five-fold) are prepared before adding to an equal volume of medium containing either infected or noninfected cells.
(§8) 3) Cultures are incubated at 37° C. in a 5% carbon dioxide atmosphere for seven days (if six days the CEMV test is identified as CEM-6).
(§9) 4) The tetrazolium salt, XTT, is added to all wells, and cultures are incubated to allow formazan color development by viable cells.
(§10) 5) Individual wells are analyzed spectrophotometrically to quantity formazan production, and in addition are viewed microscopically for detection of viable cells and confirmation of protective activity.
(§11) 6) Drug-treated virus-infected cells are compared with drug-treated non-infected cells and with other appropriate controls (untreated infected and untreated non-infected cells, drug-containing wells without cells, etc.) on the same plate.
7) A determination of activity is made. […]

HIV [3] = test: Reduction of HIV cytopathic effect, MT2V (MT2 cells, free virus); format: cell-based; conditions: Human immunodeficiency virus 1, read-out: Activity of Anti-HIV Compounds (EC50), MT2V
Description: as §1
(§12) In the second blank, the cell line culture and the compound being tested (but not virus) were incubated together to measure the toxicity of the drug to the cellline. The viability of the cells was measured as a function of concentration of the compound, after holding for seven days. […]
(§13) Finally, the protective effects of the test compounds were measured. Each cell culture and test compound were incubated with the virus and the viability of the cells was measured as a function of compound concentration after holding for six or seven days. […] At this point, cell viability increases steadily toward 100% unless the toxic effect of the compound (as measured in the second blank) takes effect. […] The therapeutic index TI50 is calculated as IC50/EC50.
(§14) Values of test compound concentrations required for between 20 and 50% reduction of the viral cytopathic effect can also be determined. […]

HIV [4] = test: Reduction of HIV cytopathic effect, CEMC (CEM cells, virus previously cultured with host cells); format: cell-based; conditions: for EC50: Human immunodeficiency virus 1, CCRF-CEM, read-out: Activity of Anti-HIV Compounds (EC50), CEMC
Description: as §1, §2
as §3, with “The concentration of the test compound that results in 50% "control," i.e., a 50% reduction of the viral cytopathic effect, is defined as the EC 50.” left out
as §14
5) Individual wells are analyzed spectrophotometrically to quantity formazan production, and in addition are viewed microscopically for detection of viable cells and confirmation of protective activity. […]

HIV [5] = test: Reduction of HIV cytopathic effect, MT2C (MT2 cells inoculated with cultured virus-infected MT2 cells); format: cell-based
Description: as §1, §12, §13, §14

[6] = system: succinate dehydrogenase complex; conditions: mitochondria from Ustilago maydis, White et al. (1978); cited from earlier work
HIV [7] = test: Reduction of HIV cytopathic effect, CEM-IW protocol; format: cell-based; conditions: inhibition of viral cytopathic effect, asterisk: CEMIW protocol
Description: as §1, §3, §4, §5
The aforementioned identifiers are used when a batch was prepared and samples inserted into the wells. In procedures calling for the addition of the drug (or no drug) and the CEM uninfected cells to each well, followed by the subsequent addition of the HIV virus, the protocol is designated as CEM-IW.
as §9, §10, §11
Asterisks indicate the CEMIW protocol.

HIV [8] = test: Reduction of HIV cytopathic effect, CEM-6 (CEMV test, six days); format: cell-based; conditions: inhibition of viral cytopathic effect, CEM cells, 8640 min
Description: as §1, §3, §4, §5, §6, §7, §8, §9, §10, §11

HIV [9] = test: HIV antiviral activity with addition delayed after infection; format: cell-based
CEM cells = test: Toxicity of test compound to uninfected CEM cell line (growth inhibition); format: cell-based, human; conditions: Homo sapiens, CCRF-CEM; CEM cells, uninfected, Table III; read-out: IC50 (50% inhibition of cell growth)
Description: as §2, §6, §7, §8, §9, §10, §11
(§15) The compound of Example 3, viz., methyl 2-chloro-5-[[(5,6-dihydro-2-methyl-1,4-oxathiin-3-yl)carbonyl]amino]benzoate, was tested against the H9/HTLV-IIIB (HIV-I) virus employing the CEM line of host cells and using free virus innoculation (denoted CEM-V). […] All concentrations are expressed in moles per liter.
(§16) The dashed line connecting the square symbols depicts the percentage of surviving uninfected cells treated with the sample relative to the same uninfected, untreated controls. This line expresses the in-vitro growth inhibitory properties of the sample and represents the second blank test.

[10] = as above; format: cell-based, human; conditions: human, cem cells, read-out: UNINFECTED CULTURE Response (%)
Description: as §2, §6, §7, §8, §9, §10, §11, §15, §16

[11] = Human immunodeficiency virus 1, CCRF-CEM
[12] = Human immunodeficiency virus 1, CCRF-CEM, CEM cells, free HIV, read-out: Activity of Anti-HIV Compounds (EC50), CEMV
[13] = CEM cells, free HIV, read-out: Activity of Anti-HIV Compounds (EC50), CEMV

Cc1ccoc1C(=O)Nc1ccc(Cl)c(C(=O)OC(C)C)c1 [Compound 17, 1-Methylethyl 2-chloro-5-[[(3-methyl-2-furanyl)carbonyl]amino]benzoate]
EC50 (HIV [1]; [11]): 7.9 µM
EC50 (HIV [2]; [12]): 3.3 µM

CC(C)OC(=O)c1cc(NC(=O)c2ccccc2F)ccc1Cl [Compound 25, 1-Methylethyl 2-chloro-5-[(2-fluorobenzoyl)amino]benzoate]
EC50 (HIV [1]): 34.4 µM and 39.4 µM

CC1=C(C(=O)Nc2cc(C(=O)OC(C)C)c(Cl)cc2F)SCCO1 [Compound 2, 1-Methylethyl 2-chloro-5-[[(5,6-dihydro-2-methyl-1,4-oxathiin-3-yl)carbonyl]amino]-4-fluorobenzoate]
EC50 (HIV [3]): 14.4 µM
EC50 (HIV [1]; [11]): 1.8 µM
EC50 (HIV [4]): 3.5 µM
EC50 (HIV [2]; [13]): 1.3 µM
EC50 (HIV [5]; Human immunodeficiency virus 1, MT2, MT2 cells inoculated with cultured viral infected MT2 cells, read-out: Activity of Anti-HIV Compounds (EC50), MT2C): 3.2 µM

CCOC(=O)c1cccc(NC(=O)C2=C(C)OCCS2)c1 [Compound 8, Ethyl 3-[[(5,6-dihydro-2-methyl-1,4-oxathiin-3-yl)carbonyl]amino]benzoate]
Activity class of Anti-HIV Compounds, CEMC (HIV [4]; inhibition of viral cytopathic effect): MA (moderate activity (MA), that is, inhibition between approximately 20 and 50%)
inhibition of succinate dehydrogenase complex [6]: inhibitors of succinate dehydrogenase complex

CCCOC(=O)c1cc(NC(=O)c2ccccc2C)ccc1Cl [Compound 24, Propyl 2-chloro-5-[(2-methylbenzoyl)amino]benzoate]
EC50 (HIV [1]; [11]): 12 µM

COCCOCCOC(=O)c1cc(NC(=O)C2=C(C)OCCS2)ccc1Cl [Compound 78, 2-(2-Methoxyethoxy)ethyl 2-chloro-5-[[(5,6-dihydro-2-methyl-1,4-oxathiin-3-yl)carbonyl]amino]benzoate]
Activity class of Anti-HIV Compounds, CEM-IW (HIV [7]): MA (moderate activity (MA), that is, inhibition between approximately 20 and 50%)
Activity class of Anti-HIV Compounds, CEM-6 (HIV [8]): MA (moderate activity (MA), that is, inhibition between approximately 20 and 50%)

CC1=C(C(=O)Nc2ccc(Cl)cc2)SCCS1 [Compound 26, N-(4-Chlorophenyl)-5,6-dihydro-3-methyl-1,4-dithiin-2-carboxamide]
EC50 (HIV [4]): 35.5 µM
Activity class of Anti-HIV Compounds, MT2C (HIV [5]; inhibition of viral cytopathic effect, MT2 cells, cultured virus): MA (moderate activity (MA), that is, inhibition between approximately 20 and 50%)

Cc1oc(C)c(C(=O)Nc2ccc(Cl)c(C(=O)OC(C)C)c2)c1C [Compound 16, 1-Methylethyl 2-chloro-5-[[(2,4,5-trimethyl-3-furanyl)carbonyl]amino]benzoate]
EC50 (HIV [1]; [11]): 0.9 µM

COC(=O)c1cc(NC(=O)C2=C(C)OCCS2)ccc1Cl [Compound 3, Methyl 2-chloro-5-[[(5,6-dihydro-2-methyl-1,4-oxathiin-3-yl)carbonyl]amino]benzoate]
protection with delayed addition (HIV [9]; delays of up to twenty hours): delays of up to twenty hours will still offer some protection
full HIV antiviral activity after infection (HIV [9]; up to eight hours after infection): full HIV antiviral activity for up to eight hours after infection
IC50 (CEM cells): 101 µM
viability at 168 h, 172 µM ([10]; 1.72 × 10^-4 Molar): 10.1%
viability at 168 h, 17.2 µM ([10]; 1.72 × 10^-5 Molar): 95.7%
viability at 168 h, 1.72 µM ([10]; 1.72 × 10^-6 Molar): 84.6%
viability at 168 h, 0.172 µM ([10]; 1.72 × 10^-7 Molar): 86.8%
viability at 168 h, 54.4 µM ([10]; 5.44 × 10^-5 Molar): 97%
viability at 168 h, 5.45 µM ([10]; 5.45 × 10^-6 Molar): 108%
viability at 168 h, 0.546 µM ([10]; 5.46 × 10^-7 Molar): 84%
viability at 168 h, 0.0547 µM ([10]; 5.47 × 10^-8 Molar): 86.8%
concentration of maximum effect (HIV [2]; CEM-V, Figure I, point 6): about 1.7×10^-5 molar
CONCLUSION (HIV [2]; CEM-V, Table III): ACTIVE
viability at 172 µM (HIV [2]; Human immunodeficiency virus 1, CCRF-CEM, 1.72 × 10^-4 Molar, read-out: INFECTED CULTURE Response (%)): 10.7%
viability at 17.2 µM (HIV [2]; Human immunodeficiency virus 1, CCRF-CEM, 1.72 × 10^-5 Molar, read-out: INFECTED CULTURE Response (%)): 89.2%
viability at 0.172 µM (HIV [2]; Human immunodeficiency virus 1, CCRF-CEM, 1.72 × 10^-7 Molar, read-out: INFECTED CULTURE Response (%)): 23.3%
viability at 54.4 µM (HIV [2]; Human immunodeficiency virus 1, CCRF-CEM, 5.44 × 10^-5 Molar, read-out: INFECTED CULTURE Response (%)): 86.1%
viability at 5.45 µM (HIV [2]; Human immunodeficiency virus 1, CCRF-CEM, 5.45 × 10^-6 Molar, read-out: INFECTED CULTURE Response (%)): 78.8%
viability at 0.546 µM (HIV [2]; Human immunodeficiency virus 1, CCRF-CEM, 5.46 × 10^-7 Molar, read-out: INFECTED CULTURE Response (%)): 15.7%
viability at 0.0547 µM (HIV [2]; Human immunodeficiency virus 1, CCRF-CEM, 5.47 × 10^-8 Molar, read-out: INFECTED CULTURE Response (%)): 15.3%
EC50 (HIV [2]; Human immunodeficiency virus 1, IIIB, CEM-V, H9/HTLV-IIIB (HIV-I), Table III, read-out: EC50 (50% reduction in the viral cytopathic effect)): 1.91 µM
minimal effective concentration (HIV [2]; Human immunodeficiency virus 1, CEM-V, Figure I, point 5, read-out: concentration at which the compound began to show inhibition of the viral cytopathic effect): ~0.55 µM

Cc1nc(C)c(C(=O)Nc2ccc(Cl)c(C(=O)OC(C)C)c2)s1 [Compound 94]
Activity class of Anti-HIV Compounds, CEM-IW (HIV [7]): MA (moderate activity (MA), that is, inhibition between approximately 20 and 50%)
Activity class of Anti-HIV Compounds, CEM-6 (HIV [8]): MA (moderate activity (MA), that is, inhibition between approximately 20 and 50%)

COC(=O)c1cccc(NC(=O)C2=C(C)OCCS2)c1 [methyl 3-[[(5,6-dihydro-2-methyl-1,4-oxathiin-3-yl)carbonyl]amino]benzoate, reference compound]
inhibition of succinate dehydrogenase complex [6]: inhibitors of succinate dehydrogenase complex

Cc1ccccc1C(=O)Nc1ccc(Cl)c(C(=O)OC(C)C)c1 [Compound 23, 1-Methylethyl 2-chloro-5-[(2-methylbenzoyl)amino]benzoate]
EC50 (HIV [1]; [11]): 1.1 µM
EC50 (HIV [2]; [13]): 5.6 µM
EC50 (HIV [2]; [12]): 5.8 µM
